Experimental data taken from ChEMBL document CHEMBL6182949 (J Med Chem, 2025).
Calls of active or inactive are those of the source. The rule behind the calls is not given here.

Experiments:
[1] = Metabolic stability in human liver microsome assessed as half life at 1 uM measured up to 60 mins in presence of NADPH by LC-MS/MS analysis; assay type: ADME; conditions: liver microsomes
[2] = Metabolic stability in rat liver microsome assessed as half life at 1 uM measured up to 60 mins in presence of NADPH by LC-MS/MS analysis; assay type: ADME; conditions: liver microsomes
[3] = Metabolic stability monkey hepatocyte assessed as half life at 1 uM measured up to 120 mins by LC-MS/MS analysis; assay type: ADME, cell-based, Macaca mulatta; conditions: rhesus monkey, hepatocytes
[4] = Cmax in male C57BL/6 mouse at 2 mg/kg, iv measured up to 24 hrs by LC-MS/MS analysis; assay type: ADME, organism-based; conditions: in vivo
[5] = AUClast in cynomolgus monkey at 20 mg/kg, po measured up to 24 hrs by LC-MS/MS analysis; assay type: ADME, organism-based, Macaca fascicularis; conditions: in vivo
CYP2C8 = target: T1, CYP2C8 (Homo sapiens, UniProt P10632); experiment: Inhibition of CYP2C8 in human liver microsome using amodiaquine as substrate at 10 uM preincubated for 5 mins followed by NADPH addition and measured after 5 mins by LC-MS/MS analysis relative to control; assay type: ADME; conditions: human liver microsomes, probe amodiaquine, time 10 min
T1 sequence (P10632 whole entry): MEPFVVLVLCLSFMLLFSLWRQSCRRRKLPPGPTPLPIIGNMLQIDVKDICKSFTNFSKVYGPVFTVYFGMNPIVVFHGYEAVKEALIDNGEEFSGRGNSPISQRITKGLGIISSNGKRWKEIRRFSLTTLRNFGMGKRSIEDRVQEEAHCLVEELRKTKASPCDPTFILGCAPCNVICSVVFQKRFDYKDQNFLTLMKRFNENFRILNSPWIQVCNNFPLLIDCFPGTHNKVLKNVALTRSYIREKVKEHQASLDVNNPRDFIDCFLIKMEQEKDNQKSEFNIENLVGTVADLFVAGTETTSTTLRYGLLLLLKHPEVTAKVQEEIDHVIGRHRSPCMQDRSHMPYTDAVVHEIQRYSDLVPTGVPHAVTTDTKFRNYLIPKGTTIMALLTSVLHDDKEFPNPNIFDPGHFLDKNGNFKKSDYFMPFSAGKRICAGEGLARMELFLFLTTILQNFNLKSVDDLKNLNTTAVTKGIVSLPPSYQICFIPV

[6] = target: Protein cereblon/Interleukin-1 receptor-associated kinase 4 (Mus musculus) (UniProt Q8C7D2+Q8R4K2); experiment: PROTAC activity at CRBN/IRAK4 in mouse PBMC cells assessed as induction of IRAK4 degradation incubated for 24 hrs by HiBiT lytic reagent based analysis relative to control; assay type: cell-based
Chain of Protein cereblon/Interleukin-1 receptor-associated kinase 4 (Mus musculus) (Q8C7D2 whole entry, looked up): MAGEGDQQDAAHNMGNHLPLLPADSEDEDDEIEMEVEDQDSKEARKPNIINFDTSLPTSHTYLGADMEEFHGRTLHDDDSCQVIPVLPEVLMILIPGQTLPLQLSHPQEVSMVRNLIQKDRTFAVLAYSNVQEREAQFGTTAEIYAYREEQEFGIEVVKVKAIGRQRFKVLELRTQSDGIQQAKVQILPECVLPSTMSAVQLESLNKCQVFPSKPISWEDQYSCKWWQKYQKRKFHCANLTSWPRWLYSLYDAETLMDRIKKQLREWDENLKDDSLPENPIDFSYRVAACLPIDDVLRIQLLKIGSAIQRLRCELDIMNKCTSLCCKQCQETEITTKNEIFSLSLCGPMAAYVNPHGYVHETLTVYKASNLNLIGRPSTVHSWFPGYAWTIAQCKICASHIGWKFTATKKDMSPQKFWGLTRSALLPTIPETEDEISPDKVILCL
Chain of Protein cereblon/Interleukin-1 receptor-associated kinase 4 (Mus musculus) (Q8R4K2 whole entry, looked up): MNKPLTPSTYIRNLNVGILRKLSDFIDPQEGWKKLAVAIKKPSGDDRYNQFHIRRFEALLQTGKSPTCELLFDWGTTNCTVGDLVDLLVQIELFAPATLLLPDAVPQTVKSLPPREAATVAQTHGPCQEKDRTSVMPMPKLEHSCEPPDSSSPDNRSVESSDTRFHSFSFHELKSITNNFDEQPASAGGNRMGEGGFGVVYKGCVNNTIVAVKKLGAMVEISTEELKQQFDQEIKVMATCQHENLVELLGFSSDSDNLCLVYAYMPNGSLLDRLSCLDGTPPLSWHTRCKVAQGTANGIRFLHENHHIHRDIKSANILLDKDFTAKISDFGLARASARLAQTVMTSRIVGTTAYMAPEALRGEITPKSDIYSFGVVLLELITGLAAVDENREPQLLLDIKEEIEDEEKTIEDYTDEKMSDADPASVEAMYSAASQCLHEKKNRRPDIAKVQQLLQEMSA

Mus musculus = experiment: Anti-psoriasis effect in IMQ-induced C57BL/6 mouse assessed as reduction in ear thickness at 10 mg/kg administered topically twice daily for 6 days and measured after 24 hrs; assay type: functional, organism-based; conditions: time 7.0 day

Work on `Cn1c(=O)n(C2CCC(=O)NC2=O)c2cccc(C#CCO[C@H]3CC[C@H](CN4CCC5(CC4)Cc4cc(NC(=O)c6coc7cccnc67)c(N6CCC(CO)CC6)cc4O5)CC3)c21` (stereo partly drawn) yielded a half-life at 1 µM [1] of over 184 min, a half-life at 1 µM [2] of over 184 min and a half-life at 1 µM [3] of over 371 min. The Cmax [4] was 1870 ng/mL, the AUC(0-t) at 24 h [5] was 4000 ng·h/mL and the inhibition at 5 min, 10 µM (CYP2C8) was 12.4%. The Emax [6] was 82% and the Activity (Mus musculus) was “Active”.
